These results are taken from PubChem BioAssay (NCI).

Holding throughout (experiment): growth of human tumour cells (NCI), 48 h
The test system of test [1] is SW-620 colon.
The test system of test [2] is SK-MEL-2 melanoma.
Test [3] has as its system NCI-H460 lung.
In test [4] the test system is OVCAR-3 ovarian.
Test [5] concerns U251 CNS.
For test [6], the system named is SF-295 CNS.
The test system of test [7] is OVCAR-8 ovarian.
Test [8] has as its system OVCAR-4 ovarian.
The subject of test [9] is TK-10 renal.
Test [10] concerns NCI-H522 lung.
Test [11] concerns 786-0 renal.
Test [12] has as its system M14 melanoma.
Test [13] concerns SF-268 CNS.
Test [14] relates to MDA-MB-231 breast.
Test [15] relates to MCF7 breast.
In test [16] the test system is T-47D breast.
Test [17] has as its system MDA-MB-435.

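Step 1: Grow cells in 96-well plates. Step 2: Expose to compound for 48 hours at 5 concentrations. Step 3: Interpolate endpoints linearly; if unreached, use highest concentration. TGI is the concentration that stops growth completely.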

Regarding `CC/C(SC)=[N+](\C)[O-]`, the TGI in [1], in test [2], in [3], in test [4], in test [5] and in [6] was above 100 µM in each case. The TGI is above 100 µM in [7]; above 100 µM in test [8]; above 100 µM in test [9]; above 62.3 µM in test [10]; above 100 µM in test [11]; above 100 µM in [12]. This compound registered a TGI in test [13] above 100 µM.

As for `O=C(N/N=C(\c1nc2ccc(Cl)cc2[nH]c1=O)C(O)c1ccccc1Cl)c1ccncc1` (stereo not drawn), the TGI in [1], in [2], in test [3], in [4], in test [6] and in test [8] was above 100 µM each time. For the same compound, the TGI in test [9], in test [10], in [11], in test [12] and in test [13] was above 100 µM throughout.

Take `C#Cc1cc(CN(CC(=O)OC(C)(C)C)CC(=O)OC(C)(C)C)nc(CN(CC(=O)OC(C)(C)C)CC(=O)OC(C)(C)C)c1`: the TGI in test [1] is 21.1 µM; in test [2] it was 8.24 µM; in [3] it was above 100 µM; in test [4] it was above 100 µM; in test [5], 27.8 µM; in test [6], above 100 µM. The TGI in test [7] is 31.6 µM; in test [8], 37.9 µM; in [9], above 100 µM; in [10] it was 4.22 µM; in test [11], 47.8 µM; in test [12], 28.6 µM. The TGI in [13] amounted to 44.8 µM.

Regarding `CN(C)Cc1cc(/C=C/C(=O)c2ccc(Cl)c(Cl)c2)cc(CN(C)C)c1O`, the TGI in test [1] was found to be 30.1 µM; in [2], 31 µM; in test [3] it was 22.7 µM; in [4], 23.8 µM; in test [14], 21.8 µM; in test [6], 36.1 µM. The TGI in test [15] came out at 31.7 µM; in [7], 32.8 µM; in [16], 24.1 µM; in test [9], 25.6 µM; in [11] it was 21.3 µM; in test [12], 33.3 µM. Also, the results for the TGI in [17] and in test [13] were 23.3 µM and 23.7 µM, respectively.

Take `CCCc1c(C(=O)OCC)[nH]c(C(=O)CCC(=O)c2[nH]c(C(=O)OCC)c(CCC)c2C(=O)OCC)c1C(=O)OCC`: the TGI in [1], in test [2], in [3], in test [4], in test [5] and in test [6] was above 100 µM throughout. The TGI in test [7], in [8], in [9], in [10], in [11] and in test [12] was above 100 µM throughout. In [13], this compound displayed a TGI above 100 µM.

With `CCN(CC)CCCCC1CCN(CC(=O)N2c3cc(Cl)ccc3NC(=O)CC2C)CC1` (stereo not drawn), the TGI in test [1], in [3], in test [4], in test [5], in test [6] and in [8] was above 100 µM in each case. For the same compound, the TGI in test [11], in [12] and in [13] was above 100 µM each time.

With `Cc1ccc(C2SCC(=O)N2NC(=O)c2ccncc2)s1` (stereo not drawn), the TGI in test [1], in test [2], in [4], in test [14], in test [5] and in test [6] was above 100 µM each time. Also, the TGI in test [15], in test [7], in [16], in test [8], in test [9] and in test [10] was above 100 µM each time. In addition, the TGI in test [11], in test [12], in [17] and in [13] was above 100 µM in each case.

As for `Cn1c(=O)cc(N2CCCC2)[nH]c1=O`, the TGI in [1], in test [2], in test [3], in [14], in [5] and in test [6] was above 100 µM in each case. The TGI in [15], in test [7], in test [8], in test [9], in test [10] and in test [11] was above 100 µM throughout. Further, the TGI in test [12], in test [17] and in test [13] was above 100 µM in each case.

As for `CC(C)C1COC(c2ccc3ccccc3c2-c2c(O[Si](C)(C)C(C)(C)C)ccc3ccccc23)=N1` (stereo not drawn), the TGI in test [1] stood at 35.1 µM; in test [2], 30.4 µM; in [3] it was 37.4 µM; in [4] it was 31.5 µM; in test [6], 32.1 µM; in test [7], 35.3 µM. Also, the TGI in [8] was 36.1 µM; in test [9], 33 µM; in test [10], 29.8 µM; in test [11], 32.4 µM; in [12] it was 29.2 µM; in [13] it was 34.7 µM.

Consider `CCOC(=O)Nn1c(C)cc(C(=O)OC)c1C`, for which the TGI in [1], in test [2], in test [3], in [4], in test [5] and in test [6] was above 100 µM each time. The TGI in [7], in test [9], in [10], in [11], in test [12] and in [13] was above 100 µM throughout.
